Source: ChEMBL document CHEMBL5696442, “Discovery of type II inhibitors of TGFβ-activated kinase 1 (TAK1) and mitogen-activated protein kinase kinase kinase kinase 2 (MAP4K2)” (J Med Chem, 2015)
The source made the active and inactive calls. The calls are words filed in the database; no cut-off is given here.

Tests used:
[1] = molecular target: Mitogen-activated protein kinase 3 (Homo sapiens) (UniProt P27361); experiment: Inhibition of Erk1 Lys2 labeling site harbouring YIHSANVLHRDLKPSNLLINTTCDLK in human Huh-7 cell lysate at 1 uM by KiNativ Profiling analysis relative to control; type: subcellular
[2] = tested on: Tyrosine-protein kinase ABL1 (Homo sapiens), P00519 [E255K]; experiment: Inhibition of ABL1 E255K mutant (unknown origin) at 10 uM by Ambit Kinomescan binding assay relative to control
[3] = molecular target: Calcium/calmodulin-dependent protein kinase type 1 (Homo sapiens) (UniProt Q14012); experiment: Inhibition of CAMK1 (unknown origin) at 10 uM by Ambit Kinomescan binding assay relative to control
[4] = molecular target: Casein kinase I isoform epsilon (Homo sapiens) (UniProt P49674); experiment: Inhibition of CSNK1E (unknown origin) at 10 uM by Ambit Kinomescan binding assay
[5] = molecular target: Ephrin type-A receptor 8 (Homo sapiens) (UniProt P29322); experiment: Inhibition of EPHA8 (unknown origin) at 10 uM by Ambit Kinomescan binding assay relative to control
[6] = molecular target: Serine/threonine-protein kinase ATR (Homo sapiens) (UniProt Q13535); experiment: Inhibition of ATR ATP labeling site in human A-375 cells at 5 uM by KiNativ Profiling analysis relative to control; type: cell-based
[7] = molecular target: T1, Serine/threonine-protein kinase ULK1 (Homo sapiens) (UniProt O75385); experiment: Inhibition of ULK1 Lys2 labeling site in human A-375 cells at 0.05 uM by KiNativ Profiling analysis relative to control; type: cell-based
T1 sequence (whole entry): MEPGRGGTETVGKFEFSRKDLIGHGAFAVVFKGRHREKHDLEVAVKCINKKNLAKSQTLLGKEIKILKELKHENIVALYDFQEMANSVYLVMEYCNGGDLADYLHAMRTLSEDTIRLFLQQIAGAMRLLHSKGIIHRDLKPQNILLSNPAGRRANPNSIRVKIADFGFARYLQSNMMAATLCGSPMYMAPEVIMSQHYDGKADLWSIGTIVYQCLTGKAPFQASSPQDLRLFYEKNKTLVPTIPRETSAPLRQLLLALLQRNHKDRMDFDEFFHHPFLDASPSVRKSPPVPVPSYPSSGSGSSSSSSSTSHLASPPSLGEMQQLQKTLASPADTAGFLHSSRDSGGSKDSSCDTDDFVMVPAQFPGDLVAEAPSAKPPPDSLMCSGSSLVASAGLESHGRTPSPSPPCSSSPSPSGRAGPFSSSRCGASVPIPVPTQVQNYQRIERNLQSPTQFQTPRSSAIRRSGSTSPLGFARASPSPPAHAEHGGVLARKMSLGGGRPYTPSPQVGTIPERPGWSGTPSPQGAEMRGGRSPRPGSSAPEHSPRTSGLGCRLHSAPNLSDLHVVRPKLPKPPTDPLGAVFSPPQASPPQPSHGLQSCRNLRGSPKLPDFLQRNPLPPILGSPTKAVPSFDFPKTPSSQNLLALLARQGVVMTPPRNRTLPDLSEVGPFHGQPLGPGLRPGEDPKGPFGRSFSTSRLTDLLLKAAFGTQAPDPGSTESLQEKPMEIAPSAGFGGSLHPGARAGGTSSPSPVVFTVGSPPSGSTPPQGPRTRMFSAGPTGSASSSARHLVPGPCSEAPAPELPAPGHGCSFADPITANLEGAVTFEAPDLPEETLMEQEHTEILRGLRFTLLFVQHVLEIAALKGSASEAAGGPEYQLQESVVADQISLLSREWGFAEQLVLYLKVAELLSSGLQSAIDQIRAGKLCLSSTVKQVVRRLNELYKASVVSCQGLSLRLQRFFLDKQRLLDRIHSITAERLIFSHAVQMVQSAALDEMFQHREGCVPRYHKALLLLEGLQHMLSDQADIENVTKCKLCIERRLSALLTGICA

[8] = molecular target: Serine/threonine-protein kinase Nek6 (Homo sapiens) (UniProt Q9HC98); experiment: Inhibition of NEK6 ACT labeling site in human Huh-7 cells at 10 uM by KiNativ Profiling analysis relative to control; type: cell-based
[9] = molecular target: AMPK alpha1/alpha2 (Homo sapiens) (UniProt P54646+Q13131); experiment: Inhibition of AMPK alpha1/2 K2 labeling site in human Huh-7 cells at 1 uM by KiNativ Profiling analysis relative to control; type: cell-based
[10] = tested on: Proto-oncogene tyrosine-protein kinase receptor Ret (Homo sapiens), P07949 [V804M]; experiment: Inhibition of RET V804M mutant (unknown origin) at 10 uM by Ambit Kinomescan binding assay relative to control; values are per cent of control
[11] = molecular target: 5'-AMP-activated protein kinase catalytic subunit alpha-2 (Homo sapiens) (UniProt P54646); experiment: Inhibition of AMPK-alpha2 (unknown origin) at 1 uM by Ambit Kinomescan binding assay relative to control
[12] = molecular target: T2, Scaffold protein ILK (Homo sapiens) (UniProt Q13418); experiment: Inhibition of ILK Protein Kinase Domain in human A-375 cells at 0.05 uM by KiNativ Profiling analysis relative to control; type: cell-based
T2 sequence (whole entry): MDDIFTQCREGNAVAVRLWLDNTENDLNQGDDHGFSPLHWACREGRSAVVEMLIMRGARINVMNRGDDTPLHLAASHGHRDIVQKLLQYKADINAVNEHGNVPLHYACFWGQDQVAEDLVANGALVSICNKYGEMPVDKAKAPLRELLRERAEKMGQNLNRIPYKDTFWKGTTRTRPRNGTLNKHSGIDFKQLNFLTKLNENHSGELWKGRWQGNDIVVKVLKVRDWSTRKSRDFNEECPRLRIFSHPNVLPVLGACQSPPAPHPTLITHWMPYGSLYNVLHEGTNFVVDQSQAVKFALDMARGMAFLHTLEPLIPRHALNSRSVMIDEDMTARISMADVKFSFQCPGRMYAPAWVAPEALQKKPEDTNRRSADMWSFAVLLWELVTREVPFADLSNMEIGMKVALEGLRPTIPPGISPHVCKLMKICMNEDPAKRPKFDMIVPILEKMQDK

[13] = molecular target: Cyclin-dependent kinase 17 (Homo sapiens) (UniProt Q00537); experiment: Inhibition of PCTAIRE2 Lys1 labeling site harbouring SKLTENLVALKEIRLEHEEGAPCTAIR in human A-375 cells at 0.05 uM by KiNativ Profiling analysis relative to control; type: cell-based
[14] = molecular target: Serine/threonine-protein kinase Nek3 (Homo sapiens) (UniProt P51956); experiment: Inhibition of NEK3 (unknown origin) at 1 uM by Ambit Kinomescan binding assay relative to control; values are per cent of control

Chain of Serine/threonine-protein kinase Nek6 (Homo sapiens) (Q9HC98 whole entry): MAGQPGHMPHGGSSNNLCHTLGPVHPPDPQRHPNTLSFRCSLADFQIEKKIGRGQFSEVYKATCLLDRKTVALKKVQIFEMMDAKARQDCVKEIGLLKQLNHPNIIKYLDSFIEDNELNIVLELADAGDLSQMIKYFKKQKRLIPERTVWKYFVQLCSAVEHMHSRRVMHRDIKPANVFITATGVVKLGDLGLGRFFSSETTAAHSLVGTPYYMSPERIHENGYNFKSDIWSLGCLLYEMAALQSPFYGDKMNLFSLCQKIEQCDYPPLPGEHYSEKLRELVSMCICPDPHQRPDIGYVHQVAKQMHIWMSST
Chain of Ephrin type-A receptor 8 (Homo sapiens) (P29322 whole entry): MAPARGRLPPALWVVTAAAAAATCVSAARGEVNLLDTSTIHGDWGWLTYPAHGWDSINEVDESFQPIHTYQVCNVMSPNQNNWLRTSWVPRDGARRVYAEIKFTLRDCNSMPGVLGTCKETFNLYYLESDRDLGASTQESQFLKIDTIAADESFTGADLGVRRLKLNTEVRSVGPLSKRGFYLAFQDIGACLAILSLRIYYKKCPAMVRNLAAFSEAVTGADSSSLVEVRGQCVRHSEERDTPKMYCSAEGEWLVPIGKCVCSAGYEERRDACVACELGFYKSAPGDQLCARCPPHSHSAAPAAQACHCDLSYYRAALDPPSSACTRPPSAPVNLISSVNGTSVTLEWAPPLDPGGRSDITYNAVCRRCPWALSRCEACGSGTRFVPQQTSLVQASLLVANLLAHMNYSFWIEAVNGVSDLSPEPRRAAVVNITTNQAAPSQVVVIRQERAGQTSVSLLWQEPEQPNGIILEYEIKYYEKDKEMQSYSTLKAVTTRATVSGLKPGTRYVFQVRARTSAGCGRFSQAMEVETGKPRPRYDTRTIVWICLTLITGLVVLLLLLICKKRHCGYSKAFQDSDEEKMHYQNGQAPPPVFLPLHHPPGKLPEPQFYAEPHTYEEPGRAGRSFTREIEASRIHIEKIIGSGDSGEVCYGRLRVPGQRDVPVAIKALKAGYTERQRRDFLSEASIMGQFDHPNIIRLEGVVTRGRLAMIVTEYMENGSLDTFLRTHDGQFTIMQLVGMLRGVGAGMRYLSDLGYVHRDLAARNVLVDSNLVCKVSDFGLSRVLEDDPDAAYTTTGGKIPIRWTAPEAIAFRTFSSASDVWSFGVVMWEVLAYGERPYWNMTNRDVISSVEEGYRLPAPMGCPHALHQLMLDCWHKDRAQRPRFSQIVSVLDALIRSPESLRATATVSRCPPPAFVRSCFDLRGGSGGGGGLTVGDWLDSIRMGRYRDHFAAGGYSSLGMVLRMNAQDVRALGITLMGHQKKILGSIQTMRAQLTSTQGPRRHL
Chain of Cyclin-dependent kinase 17 (Homo sapiens) (Q00537 whole entry, looked up): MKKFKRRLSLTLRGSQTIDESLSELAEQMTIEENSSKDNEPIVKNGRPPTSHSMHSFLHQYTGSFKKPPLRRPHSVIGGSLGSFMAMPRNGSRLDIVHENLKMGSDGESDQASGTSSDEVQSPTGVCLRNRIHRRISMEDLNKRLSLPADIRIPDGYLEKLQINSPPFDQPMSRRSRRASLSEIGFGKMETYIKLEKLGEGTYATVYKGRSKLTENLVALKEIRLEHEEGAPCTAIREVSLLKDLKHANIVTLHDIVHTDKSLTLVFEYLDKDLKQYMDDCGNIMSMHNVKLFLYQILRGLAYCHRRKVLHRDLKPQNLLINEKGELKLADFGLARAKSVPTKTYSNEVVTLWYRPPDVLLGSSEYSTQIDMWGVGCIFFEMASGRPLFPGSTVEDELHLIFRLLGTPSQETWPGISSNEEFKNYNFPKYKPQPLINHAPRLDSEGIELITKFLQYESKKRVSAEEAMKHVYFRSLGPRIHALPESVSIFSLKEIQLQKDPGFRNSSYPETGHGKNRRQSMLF
Chain of Serine/threonine-protein kinase ATR (Homo sapiens) (Q13535 whole entry, looked up): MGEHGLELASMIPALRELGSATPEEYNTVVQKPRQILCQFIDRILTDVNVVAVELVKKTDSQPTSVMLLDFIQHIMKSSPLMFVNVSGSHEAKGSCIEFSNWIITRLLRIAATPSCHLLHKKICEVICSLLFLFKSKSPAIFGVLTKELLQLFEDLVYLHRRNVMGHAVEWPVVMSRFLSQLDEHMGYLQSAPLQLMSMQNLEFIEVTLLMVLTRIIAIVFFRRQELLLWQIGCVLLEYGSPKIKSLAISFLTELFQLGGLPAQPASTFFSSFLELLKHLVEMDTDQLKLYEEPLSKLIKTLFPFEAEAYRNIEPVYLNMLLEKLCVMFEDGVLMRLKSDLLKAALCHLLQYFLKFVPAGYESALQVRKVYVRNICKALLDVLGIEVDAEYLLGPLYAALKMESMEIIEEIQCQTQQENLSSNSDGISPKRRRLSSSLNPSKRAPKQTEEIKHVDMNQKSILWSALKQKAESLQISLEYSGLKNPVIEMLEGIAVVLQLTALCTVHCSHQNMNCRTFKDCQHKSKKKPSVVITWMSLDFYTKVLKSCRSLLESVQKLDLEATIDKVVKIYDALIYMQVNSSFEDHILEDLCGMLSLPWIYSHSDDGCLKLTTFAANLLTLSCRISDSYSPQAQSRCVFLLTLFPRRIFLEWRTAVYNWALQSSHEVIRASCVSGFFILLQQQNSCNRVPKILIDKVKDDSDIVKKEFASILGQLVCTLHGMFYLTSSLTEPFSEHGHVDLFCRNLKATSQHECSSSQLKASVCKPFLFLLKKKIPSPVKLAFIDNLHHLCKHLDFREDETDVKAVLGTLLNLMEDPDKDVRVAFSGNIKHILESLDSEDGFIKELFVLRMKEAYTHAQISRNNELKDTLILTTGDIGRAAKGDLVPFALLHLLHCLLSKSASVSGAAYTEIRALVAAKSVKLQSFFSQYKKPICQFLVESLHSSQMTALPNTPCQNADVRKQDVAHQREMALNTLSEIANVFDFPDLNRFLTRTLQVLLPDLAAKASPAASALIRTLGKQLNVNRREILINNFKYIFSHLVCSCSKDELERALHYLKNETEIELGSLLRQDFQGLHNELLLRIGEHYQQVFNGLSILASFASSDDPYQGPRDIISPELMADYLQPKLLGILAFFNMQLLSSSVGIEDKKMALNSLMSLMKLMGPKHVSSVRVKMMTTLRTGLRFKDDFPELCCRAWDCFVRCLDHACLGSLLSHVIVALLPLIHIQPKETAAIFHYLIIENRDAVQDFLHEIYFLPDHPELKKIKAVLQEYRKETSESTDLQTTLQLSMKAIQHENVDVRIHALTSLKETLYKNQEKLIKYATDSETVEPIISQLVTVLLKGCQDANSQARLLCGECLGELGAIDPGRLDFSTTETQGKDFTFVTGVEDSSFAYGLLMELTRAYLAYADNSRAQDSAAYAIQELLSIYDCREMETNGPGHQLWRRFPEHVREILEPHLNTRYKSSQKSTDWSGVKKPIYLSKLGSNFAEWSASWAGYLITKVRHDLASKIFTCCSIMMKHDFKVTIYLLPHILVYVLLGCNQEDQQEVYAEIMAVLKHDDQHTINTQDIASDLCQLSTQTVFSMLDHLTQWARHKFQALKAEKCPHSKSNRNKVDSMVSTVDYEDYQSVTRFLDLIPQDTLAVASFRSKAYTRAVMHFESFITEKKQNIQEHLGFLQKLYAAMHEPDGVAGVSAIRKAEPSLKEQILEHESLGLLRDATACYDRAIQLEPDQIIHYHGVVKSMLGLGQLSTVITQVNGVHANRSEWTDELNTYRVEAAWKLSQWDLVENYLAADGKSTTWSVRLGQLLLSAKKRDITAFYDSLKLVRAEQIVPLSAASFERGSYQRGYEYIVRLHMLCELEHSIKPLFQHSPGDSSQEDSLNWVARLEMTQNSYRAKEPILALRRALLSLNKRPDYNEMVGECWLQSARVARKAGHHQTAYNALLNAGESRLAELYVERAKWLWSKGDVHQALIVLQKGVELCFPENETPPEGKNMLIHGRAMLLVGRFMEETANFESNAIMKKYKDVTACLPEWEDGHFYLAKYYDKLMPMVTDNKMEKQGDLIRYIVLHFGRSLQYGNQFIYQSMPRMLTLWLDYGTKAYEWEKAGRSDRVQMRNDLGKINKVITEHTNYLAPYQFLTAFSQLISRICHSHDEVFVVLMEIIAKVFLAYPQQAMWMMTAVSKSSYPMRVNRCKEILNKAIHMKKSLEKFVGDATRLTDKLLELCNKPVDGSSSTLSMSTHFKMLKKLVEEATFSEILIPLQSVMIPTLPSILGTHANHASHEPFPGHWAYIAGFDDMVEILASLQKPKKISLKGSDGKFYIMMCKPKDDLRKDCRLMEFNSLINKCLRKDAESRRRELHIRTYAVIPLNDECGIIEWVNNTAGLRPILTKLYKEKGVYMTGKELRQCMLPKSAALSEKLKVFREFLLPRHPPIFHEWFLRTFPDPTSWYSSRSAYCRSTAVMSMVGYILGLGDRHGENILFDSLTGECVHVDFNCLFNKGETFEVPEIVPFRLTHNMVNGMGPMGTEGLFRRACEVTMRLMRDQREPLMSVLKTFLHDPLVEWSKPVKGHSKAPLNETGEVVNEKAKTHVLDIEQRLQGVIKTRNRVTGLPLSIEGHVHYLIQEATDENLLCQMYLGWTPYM
Chain of 5'-AMP-activated protein kinase catalytic subunit alpha-2 (Homo sapiens) (P54646 whole entry, looked up, the tested form may be a part): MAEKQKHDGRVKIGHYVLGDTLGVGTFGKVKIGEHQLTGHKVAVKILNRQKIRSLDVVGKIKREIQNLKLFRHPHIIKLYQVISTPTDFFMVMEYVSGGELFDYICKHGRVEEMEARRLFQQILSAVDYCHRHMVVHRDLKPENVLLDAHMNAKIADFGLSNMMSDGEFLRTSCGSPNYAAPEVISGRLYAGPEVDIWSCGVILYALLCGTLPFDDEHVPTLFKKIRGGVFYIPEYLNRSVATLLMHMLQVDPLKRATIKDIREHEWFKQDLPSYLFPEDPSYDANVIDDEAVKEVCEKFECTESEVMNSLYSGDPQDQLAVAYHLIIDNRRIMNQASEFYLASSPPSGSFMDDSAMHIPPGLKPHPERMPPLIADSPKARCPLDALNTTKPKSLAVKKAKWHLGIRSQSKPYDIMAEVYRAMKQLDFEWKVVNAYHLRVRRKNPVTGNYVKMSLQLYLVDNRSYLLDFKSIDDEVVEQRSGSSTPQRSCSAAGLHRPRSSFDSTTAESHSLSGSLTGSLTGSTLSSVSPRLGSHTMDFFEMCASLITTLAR

**Q.** `CNc1cc(Oc2cc(C(=O)Nc3cc(N4CCN(C)CC4)cc(C(F)(F)F)c3)ccc2C)ncn1` was tested. Which inhibition [1] did it give?
**A.** Its inhibition is 20.7%.

**Q.** What does the source list for `CCN1CCN(Cc2ccc(NC(=O)c3ccc(C)c(Oc4ccnc5[nH]ccc45)c3)cc2C(F)(F)F)CC1`?
**A.** inhibition [2]: 1.2%; inhibition [3]: 0%; inhibition [4]: inactive; inhibition [5]: 0.1%; inhibition [6]: -2.8%; inhibition [7]: 4.8%; inhibition [8]: -3%; inhibition [9]: 12.5%; residual activity [10]: 1%

**Q.** Which results are given for `CCN1CCN(Cc2ccc(NC(=O)c3ccc(C)c(/C=C/c4cnc5[nH]ccc5c4OC)c3)cc2C(F)(F)F)CC1`?
**A.** inhibition [11]: 61%; inhibition [12]: -9.6%; inhibition [13]: 2.7%; residual activity [14]: 79%
